From US8415469B2, “Compounds and methods for kinase modulation, and indications therefor” (Plexxikon Inc., priority 2005, dated 2013)

Legend:
Format in all cases: biochemical
Flt4 = target: T1, Flt4 (Homo sapiens, UniProt P35916); test: AlphaScreen kinase assay, Flt4; settings: read-out: IC50, activity toward kinase Flt4
T1 construct: purchased ProQinase GmbH (Freiburg, Germany)
Summary of the method: (§1)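 Uses phospho-specific antibody on acceptor beads plus streptavidin donor beads capturing biotinylated peptide substrate; singlet oxygen from donor excites nearby acceptor. Inhibitors tested in 8-point, 1:3 titrations starting from 20 mM DMSO solutions.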

Syk = Syk (Homo sapiens, UniProt P43405); test: AlphaScreen kinase assay, Syk; settings: read-out: IC50, activity toward kinase Syk
Excerpt: AlphaScreen assay was used to screen additional kinases. The assay is similarly dependent on the phosphorylation of a peptide substrate. In this assay, an antibody that recognizes phosphorylated substrate is bound to an acceptor bead. The peptide substrate is attached to biotin, which binds to a donor head that contains streptavidin. Thus phosphorylated substrate is bound by antibody and streptavidin, bringing the donor and acceptor heads into close proximity when kinase is not inhibited. The donor produces singlet oxygen which results in emission from the acceptor when they are in close proximity. Conversely, when kinase is inhibited, the donor and acceptor beads are not associated and the emission from the acceptor is reduced.
AlphaScreen assays were done using compounds dissolved in DMSO to a concentration of 20 mM. The compounds were diluted accordingly to the desired final concentrations in each sample well, using 1:3 serial dilution for a total of 8 concentration points.

Pyk2 = target: T2, Pyk2 (Homo sapiens, UniProt Q14289); test: AlphaScreen kinase assay, Pyk2; settings: read-out: IC50, activity toward kinase Pyk2
T2 construct: purchased Upstate Biotechnology

Jnk2 = target: T3, Jnk2 (Homo sapiens, UniProt P45984); test: AlphaScreen kinase assay, Jnk2; settings: read-out: IC50, activity toward kinase Jnk2
T3 construct: purchased Roche Protein Expression Group (Indianapolis, IN)
Summary of the method: as §1

Zap70 = target: T4, Zap70 (Homo sapiens, UniProt P43403); test: AlphaScreen kinase assay, Zap70; settings: read-out: IC50, activity toward kinase Zap70
T4 construct: P1868.pFastBac1 ZAP70 D327-G606 HIS, WT; His7 (HHHHHHH) (C); made in house
T4 sequence (P43403 with tags, fused parts or gaps): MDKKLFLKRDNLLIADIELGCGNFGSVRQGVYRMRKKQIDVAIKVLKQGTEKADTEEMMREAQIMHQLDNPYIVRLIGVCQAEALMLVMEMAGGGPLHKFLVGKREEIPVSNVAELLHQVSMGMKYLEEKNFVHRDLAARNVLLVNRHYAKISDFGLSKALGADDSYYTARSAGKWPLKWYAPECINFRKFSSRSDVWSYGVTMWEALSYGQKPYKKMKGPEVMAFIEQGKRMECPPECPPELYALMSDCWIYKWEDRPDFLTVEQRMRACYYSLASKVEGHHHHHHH
Summary of the method: as §1

Gsk3β = Gsk3β (Homo sapiens, UniProt P49841); test: AlphaScreen kinase assay, Gsk3β; settings: read-out: IC50, activity toward kinase Gsk3β
Summary of the method: as §1

MAP4K4 = MAP4K4 (Homo sapiens, UniProt O95819); test: AlphaScreen kinase assay, MAP4K4; settings: read-out: IC50, activity toward kinase MAP4K4
IGF1R = IGF1R (Homo sapiens, UniProt P08069); test: AlphaScreen kinase assay, IGF1R; settings: read-out: IC50, activity toward kinase IGF1R
Sequence of IGF1R (P08069 31-1367): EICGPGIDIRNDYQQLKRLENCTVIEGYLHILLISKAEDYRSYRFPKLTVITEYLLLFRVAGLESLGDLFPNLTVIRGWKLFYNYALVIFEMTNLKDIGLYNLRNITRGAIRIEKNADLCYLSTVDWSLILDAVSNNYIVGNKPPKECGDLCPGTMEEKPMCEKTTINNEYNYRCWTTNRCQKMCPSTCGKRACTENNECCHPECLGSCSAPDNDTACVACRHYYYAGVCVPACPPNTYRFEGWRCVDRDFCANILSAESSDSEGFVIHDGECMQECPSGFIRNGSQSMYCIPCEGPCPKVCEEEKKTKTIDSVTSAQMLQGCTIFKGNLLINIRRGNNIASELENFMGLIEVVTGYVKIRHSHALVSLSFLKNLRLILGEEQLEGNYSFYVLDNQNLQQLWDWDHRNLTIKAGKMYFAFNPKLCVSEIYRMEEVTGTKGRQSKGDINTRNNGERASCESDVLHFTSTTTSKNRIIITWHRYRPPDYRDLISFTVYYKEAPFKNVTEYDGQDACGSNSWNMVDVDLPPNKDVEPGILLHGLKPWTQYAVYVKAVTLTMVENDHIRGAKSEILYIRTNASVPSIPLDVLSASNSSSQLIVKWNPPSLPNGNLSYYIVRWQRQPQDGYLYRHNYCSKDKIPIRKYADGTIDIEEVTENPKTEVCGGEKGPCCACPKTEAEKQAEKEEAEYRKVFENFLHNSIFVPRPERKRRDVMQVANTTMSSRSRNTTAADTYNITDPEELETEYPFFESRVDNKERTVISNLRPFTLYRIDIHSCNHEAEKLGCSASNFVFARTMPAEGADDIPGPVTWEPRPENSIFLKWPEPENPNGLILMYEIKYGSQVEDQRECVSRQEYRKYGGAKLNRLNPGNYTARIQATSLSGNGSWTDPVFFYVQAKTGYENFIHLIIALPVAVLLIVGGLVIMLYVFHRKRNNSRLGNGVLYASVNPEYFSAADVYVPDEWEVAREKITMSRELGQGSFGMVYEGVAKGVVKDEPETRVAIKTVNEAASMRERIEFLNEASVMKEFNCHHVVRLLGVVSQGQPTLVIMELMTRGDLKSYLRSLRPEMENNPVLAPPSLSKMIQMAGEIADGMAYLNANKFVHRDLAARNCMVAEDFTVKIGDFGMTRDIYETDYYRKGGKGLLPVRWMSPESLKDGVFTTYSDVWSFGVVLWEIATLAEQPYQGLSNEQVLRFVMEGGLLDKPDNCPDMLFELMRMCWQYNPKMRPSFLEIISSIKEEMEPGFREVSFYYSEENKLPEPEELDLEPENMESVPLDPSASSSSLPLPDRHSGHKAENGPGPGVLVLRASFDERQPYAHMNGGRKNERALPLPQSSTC
Experimental: AlphaScreen assays were done using compounds dissolved in DMSO to a concentration of 20 mM. The compounds were diluted accordingly to the desired final concentrations in each sample well, using 1:3 serial dilution for a total of 8 concentration points. Plates were prepared such that each kinase reaction is 20 μl in 1× kinase buffer, 5% DMSO and 10 μM ATP. After incubation of the kinase reaction for 1 hour at room temperature, 5 μl of donor beads in stop buffer (50 mM EDTA in 1× kinase buffer) was added, the sample was mixed and incubated for 20 minutes at room temperature before adding 5 μl of acceptor beads in stop buffer. The samples were incubated for 60 minutes at room temperature and the signal per well was read on AlphaQuest reader.

T1 sequence (P35916 25-1363): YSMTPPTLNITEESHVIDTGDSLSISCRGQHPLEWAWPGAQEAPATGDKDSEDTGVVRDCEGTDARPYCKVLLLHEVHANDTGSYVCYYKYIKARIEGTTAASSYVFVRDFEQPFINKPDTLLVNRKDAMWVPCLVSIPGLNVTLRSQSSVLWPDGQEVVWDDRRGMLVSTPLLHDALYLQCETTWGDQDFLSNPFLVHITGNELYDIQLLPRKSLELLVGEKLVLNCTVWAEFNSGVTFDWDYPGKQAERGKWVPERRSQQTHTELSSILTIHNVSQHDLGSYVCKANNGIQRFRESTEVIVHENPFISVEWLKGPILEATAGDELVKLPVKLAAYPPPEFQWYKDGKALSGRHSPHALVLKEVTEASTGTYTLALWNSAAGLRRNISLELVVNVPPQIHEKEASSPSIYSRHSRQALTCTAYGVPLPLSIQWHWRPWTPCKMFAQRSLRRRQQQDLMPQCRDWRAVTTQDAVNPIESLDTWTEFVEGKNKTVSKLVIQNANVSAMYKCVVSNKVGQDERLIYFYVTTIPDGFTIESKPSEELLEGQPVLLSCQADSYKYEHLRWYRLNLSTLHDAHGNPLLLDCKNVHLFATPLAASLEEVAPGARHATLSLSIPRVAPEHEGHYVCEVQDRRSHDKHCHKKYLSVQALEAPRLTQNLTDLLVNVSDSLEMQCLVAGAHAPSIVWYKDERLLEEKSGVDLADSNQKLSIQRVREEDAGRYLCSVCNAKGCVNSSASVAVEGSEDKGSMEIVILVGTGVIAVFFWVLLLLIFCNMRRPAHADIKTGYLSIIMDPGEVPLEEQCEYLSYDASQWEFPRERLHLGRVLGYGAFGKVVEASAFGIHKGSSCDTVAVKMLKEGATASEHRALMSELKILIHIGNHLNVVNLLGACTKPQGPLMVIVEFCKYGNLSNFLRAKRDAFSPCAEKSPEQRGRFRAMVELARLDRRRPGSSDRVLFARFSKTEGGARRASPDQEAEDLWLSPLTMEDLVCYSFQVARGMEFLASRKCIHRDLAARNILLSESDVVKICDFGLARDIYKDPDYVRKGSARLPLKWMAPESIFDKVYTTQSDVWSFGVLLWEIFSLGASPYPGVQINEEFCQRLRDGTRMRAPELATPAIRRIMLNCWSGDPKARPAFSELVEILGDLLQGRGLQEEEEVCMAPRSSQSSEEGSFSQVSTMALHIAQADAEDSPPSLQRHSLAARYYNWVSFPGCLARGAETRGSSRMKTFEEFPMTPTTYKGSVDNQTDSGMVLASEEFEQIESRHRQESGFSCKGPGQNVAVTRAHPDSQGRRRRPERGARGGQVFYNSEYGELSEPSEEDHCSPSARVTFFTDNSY
T3 sequence (P45984 whole entry): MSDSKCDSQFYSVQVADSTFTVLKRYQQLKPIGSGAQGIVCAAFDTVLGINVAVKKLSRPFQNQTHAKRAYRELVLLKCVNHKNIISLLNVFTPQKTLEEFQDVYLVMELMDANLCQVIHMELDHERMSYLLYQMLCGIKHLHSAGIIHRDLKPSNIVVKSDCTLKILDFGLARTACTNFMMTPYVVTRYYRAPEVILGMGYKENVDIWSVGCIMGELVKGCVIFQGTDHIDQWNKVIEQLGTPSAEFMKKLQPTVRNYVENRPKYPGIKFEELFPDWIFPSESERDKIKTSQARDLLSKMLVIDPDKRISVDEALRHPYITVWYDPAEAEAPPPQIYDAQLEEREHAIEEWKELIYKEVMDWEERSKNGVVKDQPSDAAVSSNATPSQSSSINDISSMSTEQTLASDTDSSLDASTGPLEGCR
Sequence of Gsk3β (P49841 whole entry): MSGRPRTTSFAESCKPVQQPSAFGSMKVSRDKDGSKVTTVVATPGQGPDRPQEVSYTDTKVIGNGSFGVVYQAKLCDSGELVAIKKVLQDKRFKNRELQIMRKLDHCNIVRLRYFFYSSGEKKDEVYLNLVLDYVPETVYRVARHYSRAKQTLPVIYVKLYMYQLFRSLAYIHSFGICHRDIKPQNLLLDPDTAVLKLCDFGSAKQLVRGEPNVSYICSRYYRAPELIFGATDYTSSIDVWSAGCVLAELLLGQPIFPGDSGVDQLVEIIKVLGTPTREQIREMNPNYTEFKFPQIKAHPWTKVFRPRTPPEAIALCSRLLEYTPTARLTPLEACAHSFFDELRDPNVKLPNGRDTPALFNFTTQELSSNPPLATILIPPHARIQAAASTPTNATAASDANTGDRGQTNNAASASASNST
T2 sequence (Q14289 whole entry): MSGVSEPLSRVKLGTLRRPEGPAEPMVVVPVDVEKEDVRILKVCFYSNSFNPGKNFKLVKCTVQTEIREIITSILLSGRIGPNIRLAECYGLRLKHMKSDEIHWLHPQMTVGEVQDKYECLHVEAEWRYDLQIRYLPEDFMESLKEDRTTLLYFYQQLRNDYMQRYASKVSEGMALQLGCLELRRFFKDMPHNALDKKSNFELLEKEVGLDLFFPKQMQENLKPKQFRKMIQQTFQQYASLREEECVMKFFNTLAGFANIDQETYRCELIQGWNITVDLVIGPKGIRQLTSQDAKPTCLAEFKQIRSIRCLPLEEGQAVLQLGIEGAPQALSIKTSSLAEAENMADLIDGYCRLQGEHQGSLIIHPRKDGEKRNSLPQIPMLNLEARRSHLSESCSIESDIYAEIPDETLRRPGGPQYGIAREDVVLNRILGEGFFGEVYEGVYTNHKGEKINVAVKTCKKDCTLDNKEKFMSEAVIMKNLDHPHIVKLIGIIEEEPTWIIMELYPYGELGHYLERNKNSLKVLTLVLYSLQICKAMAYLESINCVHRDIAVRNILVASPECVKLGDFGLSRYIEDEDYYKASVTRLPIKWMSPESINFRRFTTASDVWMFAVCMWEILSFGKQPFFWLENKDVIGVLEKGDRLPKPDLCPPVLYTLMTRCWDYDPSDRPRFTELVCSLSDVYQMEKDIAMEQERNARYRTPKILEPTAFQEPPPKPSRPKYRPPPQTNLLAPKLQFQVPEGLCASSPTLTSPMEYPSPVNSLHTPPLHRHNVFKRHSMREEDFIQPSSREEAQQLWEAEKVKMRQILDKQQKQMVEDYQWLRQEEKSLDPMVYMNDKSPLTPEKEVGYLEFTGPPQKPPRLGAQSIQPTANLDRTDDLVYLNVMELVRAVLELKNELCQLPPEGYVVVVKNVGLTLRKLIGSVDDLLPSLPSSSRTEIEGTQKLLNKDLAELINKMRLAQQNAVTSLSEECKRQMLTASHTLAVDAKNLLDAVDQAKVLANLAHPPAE

| SMILES | IC50 (Flt4) | IC50 (Pyk2) | IC50 (Jnk2) | also measured |
| --- | --- | --- | --- | --- |
| O=C(c1cccc(O)c1)c1c[nH]c2ncc(Br)cc12 [Compound P-0019] | ≤ 10 µM |  |  |  |
| O=C(c1cccc(O)c1)c1c[nH]c2nccc(Cl)c12 [Compound P-0012] | ≤ 10 µM |  |  |  |
| Oc1cccc(Cc2c[nH]c3ncc(-c4ccsc4)cc23)c1 [Compound P-0056] |  | ≤ 10 µM | ≤ 10 µM | IC50 (Syk): ≤ 10 µM |
| CS(=O)(=O)Nc1cccc(-c2cnc3[nH]cc(C(=O)c4cccc(O)c4F)c3c2)c1 [Compound P-0038, N-{3-[3-(2-Fluoro-3-hydroxy-benzoyl)-1H-pyrrolo[2,3-b]pyridin-5-yl]-phenyl}-methanesulfonamide] |  |  |  | IC50 (Zap70): ≤ 10 µM |
| NC(=O)c1ccc(-c2ccnc3[nH]cc(C(=O)c4cc(F)ccc4F)c23)cc1 [Compound P-0013] |  |  | ≤ 10 µM |  |
| CCCS(=O)(=O)Nc1ccc(F)c(C(=O)c2c[nH]c3ncc(-c4ccccc4)cc23)c1F [Compound P-0636, Propane-1-sulfonic acid [2,4-difluoro-3-(5-phenyl-1H-pyrrolo[2,3-b]pyridine-3-carbonyl)-phenyl]-amide] |  | ≤ 10 µM |  |  |
| Oc1cccc(Cc2c[nH]c3ncc(-c4cccs4)cc23)c1F [Compound P-0052, 2-Fluoro-3-(5-thiophen-2-yl-1H-pyrrolo[2,3-b]pyridin-3-ylmethyl)-phenol] |  | ≤ 10 µM | ≤ 10 µM |  |
| O=C(c1ccc(O)cc1Cl)c1c[nH]c2ncccc12 [Compound P-0021] |  | ≤ 10 µM |  |  |
| O=C(c1cccc(O)c1)c1c[nH]c2ncc(-c3cccs3)cc12 [Compound P-0196] | ≤ 10 µM |  | ≤ 10 µM | IC50 (Syk): ≤ 10 µM |
| Cc1c(O)cccc1C(=O)c1c[nH]c2ncc(-c3ccccc3)cc12 [Compound P-0016, (3-Hydroxy-2-methyl-phenyl)-(5-phenyl-1H-pyrrolo[2,3b]pyridin-3-yl)-methanone] |  |  | ≤ 10 µM |  |
| Cc1ccc(S(=O)(=O)NCc2c[nH]c3ncccc23)cc1 [Compound P-0058] |  | ≤ 10 µM |  | IC50 (Zap70): ≤ 10 µM |
| Cc1ccccc1C(=O)c1c[nH]c2nccc(-c3cccc(NS(C)(=O)=O)c3)c12 [Compound P-0109] |  |  |  | IC50 (Gsk3β): ≤ 10 µM |
| Cc1c(NS(C)(=O)=O)cccc1C(=O)c1c[nH]c2ncc(-c3ccccc3)cc12 [Compound P-0082, N-[2-Methyl-3-(5-phenyl-1H-pyrrolo[2,3-b]pyridine-3-carbonyl)-phenyl]-methanesulfonamide] |  |  | ≤ 10 µM | IC50 (MAP4K4): ≤ 10 µM |
| O=C(c1cc(O)ccc1F)c1c[nH]c2ncccc12 [Compound P-0005] | ≤ 10 µM |  | ≤ 10 µM |  |
| Cc1c(O)cccc1C(=O)c1c[nH]c2ncc(-c3cccnc3)cc12 [Compound P-0006, (3-Hydroxy-2-methyl-phenyl)-(5-pyridin-3-yl-1H-pyrrolo[2,3b]pyridin-3-yl)-methanone] |  |  | ≤ 10 µM |  |
| Cc1ccccc1C(=O)c1c[nH]c2nccc(-c3ccc(C(N)=O)cc3)c12 [Compound P-0017] |  |  |  | IC50 (Gsk3β): ≤ 10 µM |
| Cc1ccc(F)cc1C(=O)c1c[nH]c2ncc(-c3cccc(N)c3)cc12 [Compound P-0040] | ≤ 10 µM |  | ≤ 10 µM | IC50 (Zap70): ≤ 10 µM |
| O=C(c1cccc(O)c1)c1c[nH]c2ncccc12 [Compound P-0011] | ≤ 10 µM |  |  |  |
| Nc1ccnc2[nH]cc(C(=O)c3ccccc3)c12 [Compound P-0029] | ≤ 10 µM |  |  |  |
| Oc1ccc(F)c(Cc2c[nH]c3ncc(-c4cccnc4)cc23)c1F [Compound P-0078, 2,4-difluoro-3-(5-pyridin-3-yl-1H-pyrrolo[2,3-b]pyridin-3-ylmethyl)-phenol] |  | ≤ 10 µM |  |  |
| CC(=O)Nc1cccc(-c2cnc3[nH]cc(C(=O)c4cc(O)ccc4F)c3c2)c1 [Compound P-0001] | ≤ 10 µM | ≤ 10 µM | ≤ 10 µM | IC50 (Zap70): ≤ 10 µM |

| SMILES | IC50 (Flt4) | IC50 (Pyk2) | IC50 (Jnk2) | also measured |
| --- | --- | --- | --- | --- |
| Oc1ccc(F)c(Cc2c[nH]c3ncc(Br)cc23)c1F [Compound P-0122, 3-(5-Bromo-1H-pyrrolo[2,3-b]pyridin-3-ylmethyl)-2,4-difluoro-phenol] |  | ≤ 10 µM |  |  |
| O=C(c1ccc(O)cc1)c1c[nH]c2ncc(-c3cccs3)cc12 [Compound P-0024, (4-Hydroxy-phenyl)-(5-thiophen-2-yl-1H-pyrrolo[2,3-b]pyridin-3-yl)-methanone] | ≤ 10 µM | ≤ 10 µM |  |  |
| Fc1cc(F)cc(-c2ccnc3[nH]cc(Sc4ccccn4)c23)c1 [Compound P-0106] |  |  |  | IC50 (Gsk3β): ≤ 10 µM |
| O=C(c1cccc(O)c1)c1c[nH]c2nccc(-c3cc(F)cc(F)c3)c12 [Compound P-0039] | ≤ 10 µM |  |  |  |
| O=C(O)/C=C/c1cccc(-c2cnc3[nH]cc(C(=O)c4cc(O)ccc4F)c3c2)c1 [Compound P-0010] |  | ≤ 10 µM |  | IC50 (Syk): ≤ 10 µM |
| Nc1cccc(-c2cnc3[nH]cc(C(=O)c4cccc(O)c4F)c3c2)c1 [Compound P-0004, [5-(3-amino-phenyl)-1H-pyrrolo[2,3-b]pyridin-3-yl]-(2-fluoro-3-hydroxy-phenyl)methanone] |  |  |  | IC50 (IGF1R): ≤ 10 µM; IC50 (Zap70): ≤ 10 µM |
| O=C(c1cccc(O)c1)c1c[nH]c2ncc(Nc3ccccc3)cc12 [Compound P-0025] |  |  | ≤ 10 µM |  |
| O=C(c1cccc(O)c1F)c1c[nH]c2ncc(-c3cccnc3)cc12 [Compound P-0027, (2-Fluoro-3-hydroxy-phenyl)-(5-pyridin-3-yl-1H-pyrrolo[2,3-b]pyridin-3-yl)-methanone] |  |  | ≤ 10 µM |  |
| O=C(c1cc(O)ccc1F)c1c[nH]c2ncc(-c3cccs3)cc12 [Compound P-0032] | ≤ 10 µM | ≤ 10 µM |  | IC50 (Zap70): ≤ 10 µM |
| CCCS(=O)(=O)Nc1ccc(F)c(C(=O)c2c[nH]c3ncc(-c4cccnc4)cc23)c1F [Compound P-0088, Propane-1-sulfonic acid [2,4-difluoro-3-(5-pyridin-3-yl-1H-pyrrolo[2,3-b]pyridine-3-carbonyl)-phenyl]-amide] |  | ≤ 10 µM | ≤ 10 µM | IC50 (MAP4K4): ≤ 10 µM |
| COc1ccc(F)c(C(=O)c2c[nH]c3ncc(-c4cccnc4)cc23)c1 [Compound P-0090] | ≤ 10 µM |  | ≤ 10 µM |  |
| Oc1cc(O)cc(Cc2c[nH]c3ncc(-c4ccsc4)cc23)c1 [Compound P-0093] | ≤ 10 µM |  |  |  |
| CC(=O)Nc1cccc(-c2cnc3[nH]cc(C(=O)c4cccc(O)c4F)c3c2)c1 [Compound P-0035, N-{3-[3-(2-Fluoro-3-hydroxy-benzoyl)-1H-pyrrolo[2,3-b]pyridin-5-yl]-phenyl}-acetamide] |  |  | ≤ 10 µM | IC50 (Zap70): ≤ 10 µM |
| Cn1cc(C(F)(F)F)c(-c2ccc(S(=O)(=O)NCc3c[nH]c4ncccc34)s2)n1 [Compound P-0041] | ≤ 10 µM | ≤ 10 µM |  | IC50 (Zap70): ≤ 10 µM |
| CN(C)S(=O)(=O)Nc1ccc(F)c(Cc2c[nH]c3ncc(-c4cccnc4)cc23)c1F [Compound P-0166] |  | ≤ 10 µM |  |  |
| O=C(O)/C=C/c1cccc(-c2cnc3[nH]cc(C(=O)c4ccccc4F)c3c2)c1 [Compound P-0033] |  |  | ≤ 10 µM | IC50 (Syk): ≤ 10 µM; IC50 (Zap70): ≤ 10 µM |
| COc1ccc(C(=O)c2c[nH]c3ncc(-c4cccc(/C=C/C(=O)O)c4)cc23)c(Cl)c1 [Compound P-0015] |  | ≤ 10 µM | ≤ 10 µM | IC50 (Zap70): ≤ 10 µM; IC50 (Gsk3β): ≤ 10 µM |
| Nc1cccc(-c2cnc3[nH]cc(C(=O)c4cccc(O)c4)c3c2)c1 [Compound P-0003] | ≤ 10 µM |  |  | IC50 (IGF1R): ≤ 10 µM |
| O=C(Nc1ccc(Cc2c[nH]c3ncccc23)cc1)Nc1cccc(C(F)(F)F)c1 [Compound P-0262, 1-[4-(1H-Pyrrolo[2,3-b]pyridin-3-ylmethyl)-phenyl]-3-(3-trifluoromethyl-phenyl)-urea] |  | ≤ 10 µM |  |  |
| Oc1ccc(F)c(C(O)c2c[nH]c3ncc(-c4cccnc4)cc23)c1F (centres unmarked) [Compound P-0009, 2,4-difluoro-3-[hydroxy-(5-pyridin-3-yl-1H-pyrrolo[2,3-b]pyridin-3-yl)-methyl]-phenol] |  |  | ≤ 10 µM | IC50 (IGF1R): ≤ 10 µM |
| NC(=O)c1cccc(-c2cnc3[nH]cc(C(=O)c4cccc(O)c4F)c3c2)c1 [Compound P-0034, 3-[3-(2-Fluoro-3-hydroxy-benzoyl)-1H-pyrrolo[2,3-b]pyridin-5-yl]benzamide] |  |  | ≤ 10 µM | IC50 (Zap70): ≤ 10 µM |
